From patent publication US10894777B2, “TG2 inhibitor piperazine compounds and uses thereof” (UNIVERSITY OF OTTAWA, priority 2016, dated 2021)

Assays:
A431 cells [1] = test: Spheroid formation assay, A431 cells; format: cell-based, human; conditions: 20 μM, 48 h on day 8 spheroids
Protocol: In (A), it is shown that A431-derived ECS cells have elevated TG2 and mesenchymal markers. A431 cells (40,000 cells/well) were grown in spheroid media in monolayer conditions or as non-attached spheroids (ECS cells) for 10 d. Cells were harvested and lysates prepared for immunoblot. In (B), A431 cells were electroporated with 3 μg of control- or TG2-siRNA and at 72 h extracts were prepared to assay TG2 and EMT marker level. In (C), A431-derived ECS cells were electroporated with 3 μg of the indicated siRNA and then grown as spheroids for 96 h. […] In (D), A431 cells (500,000 cells/well) were plated in monolayer culture in spheroid media in 100 mm dishes. The following day, at time zero, 0 or 20 μM NC9 was added with fresh addition of medium and NC9 at 24 h. At 48 h the cells were harvested and extracts prepared for immunoblot. In (E), A431 cells were pretreated in 0 or 20 μM NC9 for 2 h and then harvested and 25,000 cells were seeded in the upper chamber above a matrigel-coated membrane in 1 mL of growth medium containing 1% FCS in a Millicell chamber. […] Confluent monolayers were then scratched with a 10-μL pipette tip, rinsed, and width of the wound was monitored for 0-14 h.
Spheroid formation assay. […] Spheroid size and number was monitored with time in culture as previously described (Adhikary, G. et al., PLoS One 8:e84324, 2013).

procaspase 3 = test: Immunoblot of procaspase 3 cleavage, SCC-13 spheroids; format: cell-based, human; conditions: 8 day spheroids, 20 μM
Protocol: In (A), SCC-13 cells (40,000) were plated in non-adherent six well dishes, grown for 8 days in spheroid medium, and then NC9 was added and spheroid number was monitored at 0-48 hours. In (B), spheroids were grown for 10 days, treated for 48 hours with indicated level of NC9 and photographed. In (C), SCC-13 cells were plated at 40,000 cells per well in non-adherent six well dishes and after 10 days the spheroids were treated with 0-20 μM NC9 for 0-72 hours before trypan blue exclusion viability assay. In (D), SCC-13 spheroids were grown for 10 days, treated with 0 or 20 μM NC9 for 48 hours, and TG2 level was assayed by immunoblot. In (E), SCC-13 cells were grown as monolayers in spheroid medium and TG2 activity was monitored by FC incorporation assay as outlined in the Materials and Methods for Example 7. In (F), SCC-13 cell 8 day spheroids were treated with […] NC9 and cells were harvested at the indicated times for immunoblot detection of procaspase 3 and cleaved caspase 3. In all panels, the values are mean±SEM, n=3, p<0.05.

A431 cells [2] = test: EMT marker immunoblot, A431 cells; format: cell-based, human; conditions: 20 μM, 48 h
Protocol: In (A), it is shown that A431-derived ECS cells have elevated TG2 and mesenchymal markers. A431 cells (40,000 cells/well) were grown in spheroid media in monolayer conditions or as non-attached spheroids (ECS cells) for 10 d. Cells were harvested and lysates prepared for immunoblot. In (B), A431 cells were electroporated with 3 μg of control- or TG2-siRNA and at 72 h extracts were prepared to assay TG2 and EMT marker level. In (C), A431-derived ECS cells were electroporated with 3 μg of the indicated siRNA and then grown as spheroids for 96 h. […] In (D), A431 cells (500,000 cells/well) were plated in monolayer culture in spheroid media in 100 mm dishes. The following day, at time zero, 0 or 20 μM NC9 was added with fresh addition of medium and NC9 at 24 h. At 48 h the cells were harvested and extracts prepared for immunoblot. In (E), A431 cells were pretreated in 0 or 20 μM NC9 for 2 h and then harvested and 25,000 cells were seeded in the upper chamber above a matrigel-coated membrane in 1 mL of growth medium containing 1% FCS in a Millicell chamber. The lower chamber was filled with growth medium containing 10% FCS. […] Confluent monolayers were then scratched with a 10-μL pipette tip, rinsed, and width of the wound was monitored for 0-14 h. […]

TG2 = biological target: T1, TG2 (Homo sapiens, UniProt P21980); test: Inhibition irreversibility (filtration, dilution, activity assay); format: biochemical; conditions: after filtration over 10-kDa membrane and dilution
T1 sequence (P21980 1-687): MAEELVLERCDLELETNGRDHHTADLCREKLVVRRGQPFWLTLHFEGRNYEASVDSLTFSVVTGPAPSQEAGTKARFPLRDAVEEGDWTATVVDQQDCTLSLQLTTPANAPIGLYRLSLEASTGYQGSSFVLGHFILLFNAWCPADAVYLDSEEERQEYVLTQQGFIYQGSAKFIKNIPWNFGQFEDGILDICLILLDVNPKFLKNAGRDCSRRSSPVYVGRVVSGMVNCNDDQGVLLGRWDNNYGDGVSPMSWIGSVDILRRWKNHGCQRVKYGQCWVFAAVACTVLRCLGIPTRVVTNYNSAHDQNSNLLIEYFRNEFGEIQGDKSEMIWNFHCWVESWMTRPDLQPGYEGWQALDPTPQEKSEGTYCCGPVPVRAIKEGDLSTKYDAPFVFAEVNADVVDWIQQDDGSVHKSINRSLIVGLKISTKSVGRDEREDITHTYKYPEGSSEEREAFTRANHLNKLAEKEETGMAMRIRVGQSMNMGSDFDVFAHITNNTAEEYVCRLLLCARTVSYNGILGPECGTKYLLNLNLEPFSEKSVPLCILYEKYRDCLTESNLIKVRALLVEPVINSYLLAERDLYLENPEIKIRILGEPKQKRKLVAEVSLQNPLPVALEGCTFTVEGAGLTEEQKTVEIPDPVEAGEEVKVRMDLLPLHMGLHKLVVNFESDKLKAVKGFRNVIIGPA
Text: Inhibition irreversibility.

Compound	spheroid formation (A431 cells [1])	time to initiation of procaspase 3 cleavage after addition (procaspase 3) [h]	EMT markers expression (A431 cells [2])	recovered activity of inhibited hTG2 (TG2)
C=CC(=O)NCCCC[C@H](NC(=O)OCc1ccccc1)C(=O)NCCOCCOCCNS(=O)(=O)c1cccc2c(N(C)C)cccc12 [NC9]	reduced spheroid formation	≤ 1	reduction in EMT markers expression	
C=CC(=O)NCCCC[C@H](NC(=O)OCc1ccccc1)C(=O)N1CCN(S(=O)(=O)c2cccc3c(N(C)C)cccc23)CC1 [VA4, (S)-benzyl(6-acrylamido-1-(4-((5-(dimethylamino)naphthalen-1-yl)sulfonyl)piperazin-1-yl)-1-oxohexan-2-yl)carbamate]				no recovered activity
